Data reported in BindingDB's records for doi:10.1021/jm040160b (Research Triangle Institute, 2005).

Target: Neuronal acetylcholine receptor subunit alpha-4/beta-2 (Rattus norvegicus, UniProt P09483+P12390)
Assay: Inhibition of [3H]epibatidine binding to Nicotinic acetylcholine receptor alpha4-beta2 in rat cerebral cortex

Sequence of Neuronal acetylcholine receptor subunit alpha-4/beta-2 (P09483 whole entry): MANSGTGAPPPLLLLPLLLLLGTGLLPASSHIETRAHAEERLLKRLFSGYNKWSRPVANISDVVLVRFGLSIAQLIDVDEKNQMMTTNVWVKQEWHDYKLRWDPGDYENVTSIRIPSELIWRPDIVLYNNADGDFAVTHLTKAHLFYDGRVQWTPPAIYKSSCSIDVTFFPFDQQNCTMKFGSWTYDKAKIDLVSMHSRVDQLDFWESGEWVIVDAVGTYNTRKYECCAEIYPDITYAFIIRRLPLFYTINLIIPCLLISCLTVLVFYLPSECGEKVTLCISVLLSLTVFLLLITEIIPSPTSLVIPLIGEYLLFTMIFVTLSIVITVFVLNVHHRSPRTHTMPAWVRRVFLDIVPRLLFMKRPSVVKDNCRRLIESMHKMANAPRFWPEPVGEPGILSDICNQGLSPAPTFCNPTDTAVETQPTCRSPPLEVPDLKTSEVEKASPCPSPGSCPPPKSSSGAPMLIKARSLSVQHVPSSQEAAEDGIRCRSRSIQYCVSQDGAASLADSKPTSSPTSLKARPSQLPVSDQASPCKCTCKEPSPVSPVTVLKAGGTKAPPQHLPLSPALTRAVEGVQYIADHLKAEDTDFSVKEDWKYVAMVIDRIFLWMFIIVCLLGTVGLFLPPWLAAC
Sequence of Neuronal acetylcholine receptor subunit alpha-4/beta-2 (P12390 whole entry): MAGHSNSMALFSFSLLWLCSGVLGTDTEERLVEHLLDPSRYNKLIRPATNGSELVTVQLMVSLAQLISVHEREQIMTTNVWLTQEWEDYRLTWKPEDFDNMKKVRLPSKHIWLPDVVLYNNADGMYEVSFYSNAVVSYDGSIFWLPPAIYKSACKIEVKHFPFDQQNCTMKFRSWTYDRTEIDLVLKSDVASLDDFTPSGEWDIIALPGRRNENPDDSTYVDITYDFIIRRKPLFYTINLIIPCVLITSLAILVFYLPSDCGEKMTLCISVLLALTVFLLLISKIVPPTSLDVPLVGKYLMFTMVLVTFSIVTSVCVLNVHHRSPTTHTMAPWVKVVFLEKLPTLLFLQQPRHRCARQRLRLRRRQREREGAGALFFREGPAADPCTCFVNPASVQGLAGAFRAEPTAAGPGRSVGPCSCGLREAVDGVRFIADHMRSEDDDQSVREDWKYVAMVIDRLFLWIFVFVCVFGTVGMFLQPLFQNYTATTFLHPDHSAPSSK

SMILES: Clc1cncc(C2CC3CCC2N3)c1 (stereo unspecified) [2-(5-Chloro-pyridin-3-yl)-7-aza-bicyclo[2.2.1]heptane]
- Ki: 0.06 nM
